# According to patent US20240123079A1 (Seagen Inc., priority 2021, published 2024):
# System: THP1-Dual™ reporter cells
# Assay: THP1-Dual cell reporter assay (IRF-Lucia luciferase reporter)
# Format: cell-based, human
# Conditions: ADCs: drug linker conjugated to a targeted mAb, 48 h
# Procedure, shortened: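 THP1-Dual monocytic cells (~100,000/well) were exposed to compound for 24 h (ADCs 48 h). Secreted IRF-driven Lucia luciferase in the supernatant was quantified by QUANTI-Luc luminescence.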
row,SMILES,EC50 (ng/mL)
1,"CCn1nc(C)cc1C(=O)Nc1nc2cc(S(N)(=O)=O)ccc2n1C/C=C/Cn1c(NC(=O)c2cc(C)nn2CC)nc2cc(C(N)=O)cc(OCCC3CN(C(=O)CCN4C(=O)C=CC4=O)C3)c21 [Compound 144, (E)-7-(2-(1-(3-(2,5-dioxo-2,5-dihydro-1H-pyrrol-1-yl)propanoyl)azetidin-3-yl)ethoxy)-2-(1-ethyl-3-methyl-1H-pyrazole-5-carboxamido)-1-(4-(2-(1-ethyl-3-methyl-1H-pyrazole-5-carboxamido)-5-sulfamoyl-1H-benzo[d]imidazol-1-yl)but-2-en-1-yl)-1H-benzo[d]imidazole-5-carboxamide]",">10,000 ng/mL"
2,"CCn1nc(C)cc1C(=O)Nc1nc2cc(S(N)(=O)=O)ccc2n1C/C=C/Cn1c(NC(=O)c2cc(C)nn2C)nc2cc(C(N)=O)cc(OCCC3CN(C(=O)CCN4C(=O)C=CC4=O)C3)c21 [Compound 145, (E)-2-(1,3-dimethyl-1H-pyrazole-5-carboxamido)-7-(2-(1-(3-(2,5-dioxo-2,5-dihydro-1H-pyrrol-1-yl)propanoyl)azetidin-3-yl)ethoxy)-1-(4-(2-(1-ethyl-3-methyl-1H-pyrazole-5-carboxamido)-5-sulfamoyl-1H-benzo[d]imidazol-1-yl)but-2-en-1-yl)-1H-benzo[d]imidazole-5-carboxamide]",">10,000 ng/mL"
3,"CCn1nc(C)cc1C(=O)Nc1nc2cc(S(N)(=O)=O)ccc2n1C/C=C/Cn1c(NC(=O)c2cc(C)nn2CC)nc2cc(C(N)=O)cc(OCCCOC3CN(C(=O)CCN4C(=O)C=CC4=O)C3)c21 [Compound 146, (E)-7-(3-((1-(3-(2,5-dioxo-2,5-dihydro-1H-pyrrol-1-yl)propanoyl)azetidin-3-yl)oxy)propoxy)-2-(1-ethyl-3-methyl-1H-pyrazole-5-carboxamido)-1-(4-(2-(1-ethyl-3-methyl-1H-pyrazole-5-carboxamido)-5-sulfamoyl-1H-benzo[d]imidazol-1-yl)but-2-en-1-yl)-1H-benzo[d]imidazole-5-carboxamide]",">10,000 ng/mL"
4,"CCn1nc(C)cc1C(=O)Nc1nc2cc(S(N)(=O)=O)ccc2n1C/C=C/Cn1c(NC(=O)c2cc(C)nn2C)nc2cc(C(N)=O)cc(OCCCOC3CN(C(=O)CCN4C(=O)C=CC4=O)C3)c21 [Compound 147, (E)-2-(1,3-dimethyl-1H-pyrazole-5-carboxamido)-7-(3-((1-(3-(2,5-dioxo-2,5-dihydro-1H-pyrrol-1-yl)propanoyl)azetidin-3-yl)oxy)propoxy)-1-(4-(2-(1-ethyl-3-methyl-1H-pyrazole-5-carboxamido)-5-sulfamoyl-1H-benzo[d]imidazol-1-yl)but-2-en-1-yl)-1H-benzo[d]imidazole-5-carboxamide]",">10,000 ng/mL"
5,"CCn1nc(C)cc1C(=O)Nc1nc2cc(S(N)(=O)=O)ccc2n1C/C=C/Cn1c(NC(=O)c2cc(C)nn2C)nc2cc(C(N)=O)cc(OCCCN(C)C(=O)CCN3C(=O)C=CC3=O)c21 [Compound 148, (E)-2-(1,3-dimethyl-1H-pyrazole-5-carboxamido)-7-(3-(3-(2,5-dioxo-2,5-dihydro-1H-pyrrol-1-yl)-N-methylpropanamido)propoxy)-1-(4-(2-(1-ethyl-3-methyl-1H-pyrazole-5-carboxamido)-5-sulfamoyl-1H-benzo[d]imidazol-1-yl)but-2-en-1-yl)-1H-benzo[d]imidazole-5-carboxamide]",">10,000 ng/mL"

# Same assay, conditions: Homo sapiens, THP1-Dual; free compounds, 24 h, Lucia reporter signal; read-out: EC50
row,SMILES,EC50 [nM]
1,"CCc1nc(C)oc1C(=O)Nc1nc2cc(C(N)=O)cc(OCCC3CN(C(=O)CCN4C(=O)CC(SC[C@H](N)C(=O)O)C4=O)C3)c2n1C/C=C/Cn1c(NC(=O)c2cc(C)nn2CC)nc2cc(C(N)=O)cc(OC)c21 (stereo partly drawn) [Compound 154, S-(1-(3-(3-(2-((5-carbamoyl-1-((E)-4-(5-carbamoyl-2-(1-ethyl-3-methyl-1H-pyrazole-5-carboxamido)-7-methoxy-1H-benzo[d]imidazol-1-yl)but-2-en-1-yl)-2-(4-ethyl-2-methyloxazole-5-carboxamido)-1H-benzo[d]imidazol-7-yl)oxy)ethyl)azetidin-1-yl)-3-oxopropyl)-2,5-dioxopyrrolidin-3-yl)-L-cysteine]",> 10000
2,"CCc1nc(C)oc1C(=O)Nc1nc2cc(C(N)=O)cc(OCCCOC3CN(C(=O)CCN4C(=O)CC(SC[C@H](N)C(=O)O)C4=O)C3)c2n1C/C=C/Cn1c(NC(=O)c2cc(C)nn2CC)nc2cc(C(N)=O)cc(OC)c21 (stereo partly drawn) [Compound 156, S-(1-(3-(3-(3-((5-carbamoyl-1-((E)-4-(5-carbamoyl-2-(1-ethyl-3-methyl-1H-pyrazole-5-carboxamido)-7-methoxy-1H-benzo[d]imidazol-1-yl)but-2-en-1-yl)-2-(4-ethyl-2-methyloxazole-5-carboxamido)-1H-benzo[d]imidazol-7-yl)oxy)propoxy)azetidin-1-yl)-3-oxopropyl)-2,5-dioxopyrrolidin-3-yl)-L-cysteine]",1560

# The remaining lines, values ahead:
row,EC50 [nM],SMILES
1,1790,"CCn1nc(C)cc1C(=O)Nc1nc2cc(C(N)=O)cc(OC)c2n1C/C=C/Cn1c(NC(=O)c2cc(C)nn2C)nc2cc(C(N)=O)cc(OCCC3CNC3)c21 [Compound 140, (E)-7-(2-(azetidin-3-yl)ethoxy)-1-(4-(5-carbamoyl-2-(1-ethyl-3-methyl-1H-pyrazole-5-carboxamido)-7-methoxy-1H-benzo[d]imidazol-1-yl)but-2-en-1-yl)-2-(1,3-dimethyl-1H-pyrazole-5-carboxamido)-1H-benzo[d]imidazole-5-carboxamide]"
2,159,"CCc1nc(C)oc1C(=O)Nc1nc2cc(C(N)=O)cc(OCCC3CNC3)c2n1C/C=C/Cn1c(NC(=O)c2cc(C)nn2CC)nc2cc(C(N)=O)cc(OC)c21 [Compound 141, (E)-N-(7-(2-(azetidin-3-yl)ethoxy)-5-carbamoyl-1-(4-(5-carbamoyl-2-(1-ethyl-3-methyl-1H-pyrazole-5-carboxamido)-7-methoxy-1H-benzo[d]imidazol-1-yl)but-2-en-1-yl)-1H-benzo[d]imidazol-2-yl)-4-ethyl-2-methyloxazole-5-carboxamide]"
3,1120,"CCn1nc(C)cc1C(=O)Nc1nc2cc(C(N)=O)cc(OC)c2n1C/C=C/Cn1c(NC(=O)c2cc(C)nn2C)nc2cc(C(N)=O)cc(OCCCOC3CNC3)c21 [Compound 142, (E)-7-(3-(azetidin-3-yloxy)propoxy)-1-(4-(5-carbamoyl-2-(1-ethyl-3-methyl-1H-pyrazole-5-carboxamido)-7-methoxy-1H-benzo[d]imidazol-1-yl)but-2-en-1-yl)-2-(1,3-dimethyl-1H-pyrazole-5-carboxamido)-1H-benzo[d]imidazole-5-carboxamide]"
4,155,"CCc1nc(C)oc1C(=O)Nc1nc2cc(C(N)=O)cc(OCCCOC3CNC3)c2n1C/C=C/Cn1c(NC(=O)c2cc(C)nn2CC)nc2cc(C(N)=O)cc(OC)c21 [Compound 143, (E)-N-(7-(3-(azetidin-3-yloxy)propoxy)-5-carbamoyl-1-(4-(5-carbamoyl-2-(1-ethyl-3-methyl-1H-pyrazole-5-carboxamido)-7-methoxy-1H-benzo[d]imidazol-1-yl)but-2-en-1-yl)-1H-benzo[d]imidazol-2-yl)-4-ethyl-2-methyloxazole-5-carboxamide]"
5,94,"CCn1nc(C)cc1C(=O)Nc1nc2cc(C(N)=O)cc(OC)c2n1C/C=C/Cn1c(NC(=O)c2cc(C)nn2C)nc2cc(C(N)=O)cc(OCCCOC3CN(C(=O)CCN4C(=O)CC(SC[C@H](N)C(=O)O)C4=O)C3)c21 (stereo partly drawn) [Compound 155, S-(1-(3-(3-(3-((5-carbamoyl-1-((E)-4-(5-carbamoyl-2-(1-ethyl-3-methyl-1H-pyrazole-5-carboxamido)-7-methoxy-1H-benzo[d]imidazol-1-yl)but-2-en-1-yl)-2-(1,3-dimethyl-1H-pyrazole-5-carboxamido)-1H-benzo[d]imidazol-7-yl)oxy)propoxy)azetidin-1-yl)-3-oxopropyl)-2,5-dioxopyrrolidin-3-yl)-L-cysteine]"
